Literature values, collected in patent publication US10925890B2, “Use of dextran sulfate” (TX MEDIC AB, priority 2014, dated 2021).

Tested on: angiogenesis
Conditions: cited from earlier work

Row | Substance | Effect on angiogenesis (U.S. Pat. No. 5,135,920) | Effect on angiogenesis in vivo (Glycobiology 3, 567-573 (1993), Pathophysiology of Haemostasis and Thrombosis 23, 141-149 (1993))
1 | dextran sulfate | angiostatic | –
2 | heparin | – | inhibited angiogenesis
